In patent publication US7271148B2, “Inhibition of cellular proteases” (The Board of Regents of The University of Texas System, priority 1999, dated 2007):

Test system: p21^cip1 abundance in mock-infected LU cells
Experiment: Western blot of p21cip1 abundance in mock-infected, density-arrested LU cells
Format: cell-based, human
Conditions: E64d 100 μM, mock-infected cells
Protocol: Cell culture and growth arrest. LU cells (3) were propagated in Eagle's minimum essential medium containing 10% fetal bovine serum and penicillin (100 units/ml)/streptomycin (100 μg/ml) in a 5% CO2 in air atmosphere. The cells were density-arrested as described previously in detail (18).
Virus stocks and productive infection. The AD169 strain of HCMV was propagated in LU cells as previously described in detail (6). The infectivity of virus stocks was determined by plaque assay (3). Virus stocks typically had infectivities between 8.0×10^6 and 4.0×10^7 plaque-forming units (PFU)/milliliter. LU cells were infected with HCMV as described in detail by Bresnahan et al. (18). Virus stocks and cell cultures were routinely examined for mycoplasma.
Western blots. Polyclonal or monoclonal antibody for p21^cip1 was obtained from Santa Cruz Biotechnology, Inc. (Santa Cruz, Calif.). Monoclonal antibodies against m-calpain, μ-calpain or calpastatin were generously provided by Dr. R. I. Mellgren (see also 75). Cells were harvested as described previously (18) by dislodging the cells with a cell lifter in phosphate buffered saline. The cells were collected by sedimentation and lysed in NP-40 lysis buffer [50 mM Tris, pH 7.4, 50 mM NaCl, 0.5% NP-40, and 1 mM NaVO3, 50 mM NaF, 1mM phenylmethylsulfonyl fluoride (PMSF), 1 mM dithiothreitol (DTT), 25 μg/ml trypsin inhibitor, 25 μg/ml aprotinin, 1 mM benzamide, and 25 μg/ml pepstatin A added just before use]. Cellular debris was removed by sedimentation and the supernatant fluids were reserved. The protein concentration was determined by the BCA protein assay (Pierce, Rockford, Ill.). Whole cell extracts (40 μg/lane) were fractionated by SDS-polyacrylamide gel electrophoresis (PAGE), and the polypeptides were transferred to nitrocellulose membranes (Bio-Rad Laboratories, Hercules, Calif.) as described previously (18). Antigen-antibody reactions were detected with the enhanced chemiluminescent assay (Amersham Pharmacia Biotech) following the manufacturer's recommendations.
FIGS. 5 and 6. The effect of MG132, an inhibitor of proteasome degradation, on p21^cip1 abundance in HCMV- or mock-infected, density-arrested LU cells. 5. LU cells were density arrested, as described in Materials and Methods. The cell cultures were HCMV (5 PFU/cell)- or mock-infected and then exposed to selected concentrations of MG132 at 24 hr PI. Cell lysates were prepared at 30 hr PI (i.e., 6 hr after […] treatment), and 40 μg of protein from each lysate was resolved by SDS-PAGE. The proteins were transferred to nitrocellulose and probed with antibodies against p21^cip1. Control, cells cultured in the absence of MG132 or its solvent, DMSO. 0, DMSO solvent control, consisting of cells treated with the same concentration of DMSO (0.1%) present in the cultural fluids containing highest concentration of MG132 (10 μM). 6. Represents the abundance of p21^cip1 after MG132 treatment determined by densitometry of the data illustrated in FIG. 5. The data for mock-infected cells (open bars) were calculated relative to the p21^cip1 abundance in untreated mock-infected cells, while the data for HCMV-infected cells (closed bars) were determined relative to the p21^cip1 abundance in untreated HCMV-infected cells.
FIGS. 7 and 8. […]
At the times indicated in the FIG., whole cell lysates were prepared, and 40 μg of protein from each lysate was analyzed by SDS-PAGE. […]

CC(C)C[C@H](NC(=O)[C@H]1O[C@@H]1C(=O)O)C(=O)NCCCCN=C(N)N (relative stereo) [E64d, trans-epoxysuccinyl-L-leucylamido (4-guanidino)-butane]
effect on p21^cip1 levels in mock-infected cells (in words): little, if any, effect
increase in p21^cip1 (3 hr post-treatment (treatment from 48 hr PI)): ~56%
